Values quoted from earlier work in patent US6894093B2, “Materials free of endorine disruptive chemicals” (priority 2001, dated 2005).
Read-outs that look alike come from different tables or passages of the source.

Assays:
[1] = set-up: key: Estrogenic (EA); Carcinogenic (CA) Activity; settings: plastic monomers
[2] = test system: estrogen receptor (ER)

Compound: CC(C)(c1ccc(O)cc1)c1ccc(O)cc1 [Bisphenol A]
- Monomer Exhibits Estrogenic (EA) or Carcinogenic (CA) Activity [1]: EA
- endocrine disruptive activity ([2]; statement in background text): exhibit endocrine disruptive activity
- estrogenic activity ([2]; statement in background text): deleterious estrogenic activity

Compound: COc1ccc(O)c(C(C)(C)C)c1 [Butylated hydroxyanisole (BHA), Butylated hydroxyanisole]
- ADI: 0 to 0.5 mg/kg

Compound: CCCCC(CC)COC(=O)c1ccccc1C(=O)OCC(CC)CCCC (stereo not shown) [DEHP, di(2-ethylhexyl) phthalate]
- estrogenic activity ([2]; statement in background text): estrogen-mimicking

Compound: CCCOC(=O)c1cc(O)c(O)c(O)c1 [Propyl gallate]
- ADI: 0 to 2.5 mg/kg

Compound: CC(C)(C)c1cc(O)ccc1O [Tert-Butylhydroquinone (TBHQ), Tert-Butylhydroquinone]
- ADI: 0 to 0.2 mg/kg

Compound: C=CCl [Vinylchloride]
- Monomer Exhibits Estrogenic (EA) or Carcinogenic (CA) Activity [1]: CA

Compound: (di)Butyl hydroxy toluene [(di)Butyl hydroxy toluene (BHT)]
- Predicted Estrogenic Activity [2]: Yes
- endocrine disruptive activity [2]: exhibits endocrine disruptive activity
